Results taken from US20230041563A1, “N-(1,3,4-OXADIAZOL-2-YL)ARYLCARBOXAMIDES OR SALTS THEREOF, PREPARATION METHODS, HERBICIDAL COMPOSITIONS AND USES THEREOF” (priority 2018, published 2023).

What was measured:
Test in all cases: Weeding effect in post-emergence stage (greenhouse pot spray)
Type in all cases: in vivo
Digitaria sanguinalis = system: Digitaria sanguinalis
Text: (§1) The activity level criteria for plant damage (i.e., growth control rate) are as follows:
(§2) The above growth control rates are fresh weight control rates.
(§3) Experiment on weeding effect in post-emergence stage: monocotyledonous and dicotyledonous weed seeds (Descurainia sophia, Capsella bursa-pastoris, Abutilon theophrasti, Galium aparine, Stellaria media, Lithospermum arvense, rorippa indica, Alopecurus aequalis, Beckmannia syzigachne, Sclerochloa dura, Phleum paniculatum, Bromus japonicus, Aegilops tauschii, Phalaris arundinacea, Amaranthus retroflexus, Chenopodiaceae, Commelina communis, Sonchus arvensis, convolvulus arvensis, Cirsium setosum, Solanum nigrum, Acalypha australis, Digitaria sanguinalis, Echinochloa crusgalli, Setaria viridis, Setaria glauca, Leptochloa chinensis, Monochoria vaginalis, Sagittaria trifolia, Scirpus juncoides, Cyperus rotundus, Cyperus iria, Cyperus difformis, Fimbristylis, Portulaca oleracea, Xanthium sibiricum, Pharbitis nil) and major crop seeds (wheat, corn, rice, soybean, cotton, oilseed rape, millet, sorghum, potato, sesame, ricinus) were placed in plastic pots filled with soil, then covered with 0.5-2 cm of soil, allowed to grow in a good greenhouse environment. After 2 weeks of sowing, the test plants were treated in the 2 to 3 leaf stage. The tested compounds of the present invention were respectively dissolved in acetone, then added with Tween 80 and 1.5 liter/ha of emulsifiable concentrate of methyl oleate as synergist, diluted with a certain amount of water to obtain a solution with a certain concentration, and sprayed with a spray tower onto the plants. After the application, the plants were cultured for 3 weeks in the greenhouse, and then the experimental results of the weeding were counted. […]

Echinochloa crusgalli = system: Echinochloa crusgalli
Text: as §1, §2, §3

Setaria viridis = system: Setaria viridis
Text: as §1, §2, §3

Abutilon theophrasti = details: Table 3, dose 60 g a.i./ha
Text: as §1, §2, §3

CC[S@+]([O-])c1c(C(F)(F)F)ccc(C(=O)Nc2nnc(C)o2)c1F [1-5 (R-configuration)]
Digitaria sanguinahs (activity level) (Digitaria sanguinalis; Table 3, dose 3.75 g a.i./ha): 3 (Level 3: growth control rate is greater than or equal to 40% and less than 60%) | Digitaria sanguinahs (activity level) (Digitaria sanguinalis; Table 3, dose 7.5 g a.i./ha): 4 (Level 4: growth control rate is greater than or equal to 60% and less than 85%) | Digitaria sanguinahs (activity level) (Digitaria sanguinalis; Table 3, dose 15 g a.i./ha): 5 (Level 5: growth control rate is above 85%) | Digitaria sanguinahs (activity level) (Digitaria sanguinalis; Table 3, dose 30 g a.i./ha): 5 (Level 5: growth control rate is above 85%) | Digitaria sanguinahs (activity level) (Digitaria sanguinalis; Table 3, dose 60 g a.i./ha): 5 (Level 5: growth control rate is above 85%) | Echinochloa crusgali (activity level) (Echinochloa crusgalli; Table 3, dose 3.75 g a.i./ha): 4 (Level 4: growth control rate is greater than or equal to 60% and less than 85%) | Echinochloa crusgali (activity level) (Echinochloa crusgalli; Table 3, dose 7.5 g a.i./ha): 5 (Level 5: growth control rate is above 85%) | Echinochloa crusgali (activity level) (Echinochloa crusgalli; Table 3, dose 15 g a.i./ha): 5 (Level 5: growth control rate is above 85%) | Echinochloa crusgali (activity level) (Echinochloa crusgalli; Table 3, dose 30 g a.i./ha): 5 (Level 5: growth control rate is above 85%) | Echinochloa crusgali (activity level) (Echinochloa crusgalli; Table 3, dose 60 g a.i./ha): 5 (Level 5: growth control rate is above 85%) | Setaria viridis (activity level) (Setaria viridis; Table 3, dose 3.75 g a.i./ha): 3 (Level 3: growth control rate is greater than or equal to 40% and less than 60%) | Setaria viridis (activity level) (Setaria viridis; Table 3, dose 7.5 g a.i./ha): 4 (Level 4: growth control rate is greater than or equal to 60% and less than 85%) | Setaria viridis (activity level) (Setaria viridis; Table 3, dose 15 g a.i./ha): 5 (Level 5: growth control rate is above 85%) | Setaria viridis (activity level) (Setaria viridis; Table 3, dose 30 g a.i./ha): 5 (Level 5: growth control rate is above 85%) | Setaria viridis (activity level) (Setaria viridis; Table 3, dose 60 g a.i./ha): 5 (Level 5: growth control rate is above 85%)

CCCC[S@+]([O-])c1c(C(F)(F)F)ccc(C(=O)Nc2nnco2)c1F [3-14 (R-configuration)]
Digitaria sanguinahs (activity level) (Digitaria sanguinalis; Table 3, dose 60 g a.i./ha): 5 (Level 5: growth control rate is above 85%) | Echinochloa crusgali (activity level) (Echinochloa crusgalli; Table 3, dose 60 g a.i./ha): 5 (Level 5: growth control rate is above 85%) | Setaria viridis (activity level) (Setaria viridis; Table 3, dose 60 g a.i./ha): 5 (Level 5: growth control rate is above 85%)

CC(C)C[S@@+]([O-])c1c(C(F)(F)F)ccc(C(=O)Nc2nnco2)c1F [3-20 (R-configuration)]
Digitaria sanguinahs (activity level) (Digitaria sanguinalis; Table 3, dose 125 g a.i./ha): 5 (Level 5: growth control rate is above 85%) | Echinochloa crusgali (activity level) (Echinochloa crusgalli; Table 3, dose 125 g a.i./ha): 5 (Level 5: growth control rate is above 85%) | Setaria viridis (activity level) (Setaria viridis; Table 3, dose 125 g a.i./ha): 5 (Level 5: growth control rate is above 85%)

Cc1nnc(NC(=O)c2ccc(C(F)(F)F)c([S@+]([O-])CCC(F)(F)C(F)(F)F)c2F)o1 [1-412 (R-configuration)]
Digitaria sanguinahs (activity level) (Digitaria sanguinalis; Table 3, dose 500 g a.i./ha): 5 (Level 5: growth control rate is above 85%) | Echinochloa crusgali (activity level) (Echinochloa crusgalli; Table 3, dose 500 g a.i./ha): 5 (Level 5: growth control rate is above 85%) | Setaria viridis (activity level) (Setaria viridis; Table 3, dose 500 g a.i./ha): 5 (Level 5: growth control rate is above 85%)

O=C(Nc1nnco1)c1ccc(C(F)(F)F)c([S@@+]([O-])CCC(F)(F)F)c1F [3-52 (R-configuration)]
Digitaria sanguinahs (activity level) (Digitaria sanguinalis; Table 3, dose 125 g a.i./ha): 5 (Level 5: growth control rate is above 85%) | Echinochloa crusgali (activity level) (Echinochloa crusgalli; Table 3, dose 125 g a.i./ha): 5 (Level 5: growth control rate is above 85%) | Setaria viridis (activity level) (Setaria viridis; Table 3, dose 125 g a.i./ha): 5 (Level 5: growth control rate is above 85%)

COCC[S@+]([O-])c1c(C(F)(F)F)ccc(C(=O)Nc2nnco2)c1F [3-57 (R-configuration)]
Digitaria sanguinahs (activity level) (Digitaria sanguinalis; Table 3, dose 125 g a.i./ha): 5 (Level 5: growth control rate is above 85%) | Echinochloa crusgali (activity level) (Echinochloa crusgalli; Table 3, dose 125 g a.i./ha): 5 (Level 5: growth control rate is above 85%) | Setaria viridis (activity level) (Setaria viridis; Table 3, dose 125 g a.i./ha): 5 (Level 5: growth control rate is above 85%)

Cc1nnc(NC(=O)c2ccc(C(F)(F)F)c([S@+]([O-])CC(C)(C)C)c2F)o1 [1-392 (R-configuration)]
Digitaria sanguinahs (activity level) (Digitaria sanguinalis; Table 3, dose 500 g a.i./ha): 5 (Level 5: growth control rate is above 85%) | Echinochloa crusgali (activity level) (Echinochloa crusgalli; Table 3, dose 500 g a.i./ha): 5 (Level 5: growth control rate is above 85%) | Setaria viridis (activity level) (Setaria viridis; Table 3, dose 500 g a.i./ha): 5 (Level 5: growth control rate is above 85%)

CCC[S@@+]([O-])c1c(C(F)(F)F)ccc(C(=O)Nc2nnc(C(C)C)o2)c1F [6-8 (R-configuration)]
Digitaria sanguinahs (activity level) (Digitaria sanguinalis; Table 3, dose 250 g a.i./ha): 5 (Level 5: growth control rate is above 85%) | Echinochloa crusgali (activity level) (Echinochloa crusgalli; Table 3, dose 250 g a.i./ha): 5 (Level 5: growth control rate is above 85%) | Setaria viridis (activity level) (Setaria viridis; Table 3, dose 250 g a.i./ha): 5 (Level 5: growth control rate is above 85%)

Cc1nnc(NC(=O)c2ccc(C(F)(F)F)c([S@@+]([O-])CCCC#N)c2F)o1 [1-428 (R-configuration)]
Digitaria sanguinahs (activity level) (Digitaria sanguinalis; Table 3, dose 500 g a.i./ha): 5 (Level 5: growth control rate is above 85%) | Echinochloa crusgali (activity level) (Echinochloa crusgalli; Table 3, dose 500 g a.i./ha): 5 (Level 5: growth control rate is above 85%) | Setaria viridis (activity level) (Setaria viridis; Table 3, dose 500 g a.i./ha): 5 (Level 5: growth control rate is above 85%)

CC#CC[S@+]([O-])c1c(C(F)(F)F)ccc(C(=O)Nc2nnc(C)o2)c1F [1-402 (R-configuration)]
Digitaria sanguinahs (activity level) (Digitaria sanguinalis; Table 3, dose 500 g a.i./ha): 5 (Level 5: growth control rate is above 85%) | Echinochloa crusgali (activity level) (Echinochloa crusgalli; Table 3, dose 500 g a.i./ha): 5 (Level 5: growth control rate is above 85%) | Setaria viridis (activity level) (Setaria viridis; Table 3, dose 500 g a.i./ha): 5 (Level 5: growth control rate is above 85%)

Cc1nnc(NC(=O)c2ccc(C(F)(F)F)c([S@+]([O-])CCCO)c2F)o1 [1-430 (R-configuration)]
Digitaria sanguinahs (activity level) (Digitaria sanguinalis; Table 3, dose 500 g a.i./ha): 5 (Level 5: growth control rate is above 85%) | Echinochloa crusgali (activity level) (Echinochloa crusgalli; Table 3, dose 500 g a.i./ha): 5 (Level 5: growth control rate is above 85%) | Setaria viridis (activity level) (Setaria viridis; Table 3, dose 500 g a.i./ha): 5 (Level 5: growth control rate is above 85%)

CCC[S@@+]([O-])c1c(C(F)(F)F)ccc(C(=O)Nc2nnco2)c1F [3-8 (R-configuration)]
Digitaria sanguinahs (activity level) (Digitaria sanguinalis; Table 3, dose 60 g a.i./ha): 5 (Level 5: growth control rate is above 85%) | Echinochloa crusgali (activity level) (Echinochloa crusgalli; Table 3, dose 60 g a.i./ha): 5 (Level 5: growth control rate is above 85%) | Setaria viridis (activity level) (Setaria viridis; Table 3, dose 60 g a.i./ha): 5 (Level 5: growth control rate is above 85%)

CCC(C)[S+]([O-])c1c(C(F)(F)F)ccc(C(=O)Nc2nnc(C)o2)c1F (mixture of isomers) [Compound 1-17]
Abutilon theophrasti (activity level) (Abutilon theophrasti): 5 (Level 5: growth control rate is above 85%) | Digitaria sanguinahs (activity level) (Digitaria sanguinalis; Table 3, dose 60 g a.i./ha): 5 (Level 5: growth control rate is above 85%) | Setaria viridis (activity level) (Setaria viridis; Table 3, dose 60 g a.i./ha): 5 (Level 5: growth control rate is above 85%)

Cc1nnc(NC(=O)c2ccc(C(F)(F)F)c([S@+](C)[O-])c2F)o1 [1-2 (R-configuration)]
Digitaria sanguinahs (activity level) (Digitaria sanguinalis; Table 3, dose 7.5 g a.i./ha): 0 (Level 0: growth control rate is less than 5%) | Digitaria sanguinahs (activity level) (Digitaria sanguinalis; Table 3, dose 15 g a.i./ha): 1 (Level 1: growth control rate is greater than or equal to 5% and less than 20%) | Digitaria sanguinahs (activity level) (Digitaria sanguinalis; Table 3, dose 30 g a.i./ha): 3 (Level 3: growth control rate is greater than or equal to 40% and less than 60%) | Digitaria sanguinahs (activity level) (Digitaria sanguinalis; Table 3, dose 60 g a.i./ha): 4 (Level 4: growth control rate is greater than or equal to 60% and less than 85%) | Echinochloa crusgali (activity level) (Echinochloa crusgalli; Table 3, dose 7.5 g a.i./ha): 0 (Level 0: growth control rate is less than 5%) | Echinochloa crusgali (activity level) (Echinochloa crusgalli; Table 3, dose 15 g a.i./ha): 1 (Level 1: growth control rate is greater than or equal to 5% and less than 20%) | Echinochloa crusgali (activity level) (Echinochloa crusgalli; Table 3, dose 30 g a.i./ha): 3 (Level 3: growth control rate is greater than or equal to 40% and less than 60%) | Echinochloa crusgali (activity level) (Echinochloa crusgalli; Table 3, dose 60 g a.i./ha): 4 (Level 4: growth control rate is greater than or equal to 60% and less than 85%) | Setaria viridis (activity level) (Setaria viridis; Table 3, dose 7.5 g a.i./ha): 0 (Level 0: growth control rate is less than 5%) | Setaria viridis (activity level) (Setaria viridis; Table 3, dose 15 g a.i./ha): 2 (Level 2: growth control rate is greater than or equal to 20% and less than 40%) | Setaria viridis (activity level) (Setaria viridis; Table 3, dose 30 g a.i./ha): 3 (Level 3: growth control rate is greater than or equal to 40% and less than 60%) | Setaria viridis (activity level) (Setaria viridis; Table 3, dose 60 g a.i./ha): 3 (Level 3: growth control rate is greater than or equal to 40% and less than 60%)
